Source: patent US7112680B2, “Heterocyclic hydrazones for use as anti-cancer agents” (Austria Wirtschaftsservice Gesellschaft MIT Beschrankter …, priority 2000, dated 2006)
Read-outs that look alike come from different tables or passages of the source.

Key:
[1] = system: HT-29 (colon adenocarcinoma); experiment: Inhibition of tumor cell growth, SRB-assay, HT-29; format: cell-based, human
Method: (§1) The KB cell lines were grown in Dulbecco's modified Eagle's medium (4,5 g glucose/l). To the cultures of KB-C1 cells 1 μg of colchicine/ml, and to the hydroxyurea-resistant KB-HU cells 1 mM hydroxyurea was added every other week. […] 3,000 - 10,000 cells in 200 μl medium were seeded per well into 96-well plates. […] Approximately 10,000 cells per 100 μl were seeded in 96-well plates. […] The substances were dissolved in dimethylsulfoxide (DMSO). […] Subsequently, the samples were fixed, washed, and the absorption was determined by a microplate reader.

[2] = system: KB-HU hydroxyurea-resistant cells; experiment: Inhibition of tumor cell growth, SRB-assay, KB-HU; format: cell-based, human
Method: (§2) In order to obtain information about the growth-inhibiting action on tumor cells, the inhibition of the growth of the following human tumor cells was determined: Burkitt's lymphoma (CA 46, ATCC No. CRL 1648), CCRF-CEM (acute lymphoblastic leukemia, ATCC No. CCL 119), K562 (chronic myelogenous leukemia, ATTC No. CCL 243), HeLa (epitheloid cervix carcinoma, ATCC No. CCL 2), MEXF 276L (melanoma), HT-29 (colon adenocarcinoma, ATCC No. HTB 38), KB-3-1 (human oral epidermoid carcinoma, CTCC No. CCL 17), KB-HU hydroxyurea-resistant, multidrug-resistant KB-C1 cells (Akiyama et al, Cell. Mol Genet., 11:117–126, 1985). Burkitt's, CCRF-CEM, HeLa and MEXF 276L cells were grown in RPMI 1640, HT-29 cells in McCoy's 5A medium. The KB cell lines were grown in Dulbecco's modified Eagle's medium (4,5 g glucose/l). To the cultures of KB-C1 cells 1 μg of colchicine/ml, and to the hydroxyurea-resistant KB-HU cells 1 mM hydroxyurea was added every other week. The media were supplemented with 10% fetal calf serum (except Burkitt's lymphoma cells with 15%), 2 mM glutamine, 50 units/ml penicillin and 50 μg/ml streptomycin. Inhibition of growth of HeLa, HT-29, KB and MEXF 276L cells was detected by the SRB-assay (Skehan et al, J. Natl Cancer Inst., 82:1107–1112, 1990). 3,000 - 10,000 cells in 200 μl medium were seeded per well into 96-well plates. Dose-response curves for CCRF-CEM and Burkitt's lymphoma cells were effected by an MTT-assay (Mosman, J. Immunol Methods, 65:55–63, 1983) from Boehringer Mannheim, Mannheim, Germany. Approximately 10,000 cells per 100 μl were seeded in 96-well plates. After an initial incubation of four hours, various substance concentrations were added, and the cells were incubated at 37° C. in a water-saturated atmosphere of 95% air and 5% CO2 for 72 hours. The substances were dissolved in dimethylsulfoxide (DMSO). The concentration of DMSO was 0.5%, and this was not toxic to the cells. Subsequently, the samples were fixed, washed, and the absorption was determined by a microplate reader.

[3] = system: HeLa (epitheloid cervix carcinoma); experiment: Inhibition of tumor cell growth, SRB-assay, HeLa; format: cell-based, human
[4] = system: Burkitt's lymphoma (CA 46, ATCC No. CRL 1648); experiment: Inhibition of tumor cell growth, MTT-assay, Burkitt's lymphoma; format: cell-based, human
Method: as §1

[5] = system: multidrug-resistant KB-C1 cells; experiment: Inhibition of tumor cell growth, SRB-assay, KB-C1; format: cell-based, human
Method: as §2

[6] = system: human tumor grafts (cell lines of FIG. 1); experiment: Colony forming assay (two-layer soft agar); format: cell-based; settings: for IC50 / IC90 / Mean IC70: mean values of all cell lines tested in FIG. 1, continuous exposure 3 to 6 days
Method: An excellent correlation of drug response in patients and the colony forming assay has been found (Scholz et al, Eur. J. Cancer 25:901–905, 1990). Solid human tumors were grown as grafts in nude mice, removed from the latter, mechanically comminuted and subsequently incubated in an enzyme cocktail consisting of collagenase (1.2–1.8 U/ml), DNAse (375 U/ml) and hyaluronidase (29 U/ml) in RPMI 1640 medium at 37° C. for 30 minutes. The cell mixture was passed through sieves of 200 μm and 50 μm mesh size and washed thereafter twice with PBS (phosphate buffered saline). The percentage of live cells was determined using a Neubauer counting chamber and trypan blue staining.
The colony forming assay was performed according to a two-layer agar technique introduced and modified by Hamburger and Salmon (Hamburger and Salmon, Science, 197:461–463, 1977). The bottom layer consisted of 0.2 ml of Iscoves's Modified Dulbecco's medium with 20% fetal calf serum and 0.75% agar. 8×10^3 to 1.6×10^4 cells were added to the same medium and 0.4% agar and plated in 24-multiwell plates onto the base layer. One day after the plating (with continuous exposure), the substances were added in 0.2 ml medium. Each plate included six controls containing the solvent only, and the treated groups contained 6 concentrations of the substances, each in triplicate. Cultures were incubated at 37° C. and 7% CO2 in a water-saturated atmosphere for 3 to 6 days, depending on the doubling time of the tumor cells. At the time of maximum colony formation with a size of […], counts were performed with an automatic image analysis system. 24 h prior to counting, live colonies were stained with a sterile aqueous solution of 2-(4-iodophenyl)-3-(4-nitrophenyl)-5-phenyltetrazolium chloride (1 mg/ml, 100 μl/well). The results of the tests are given in FIG. 1, and in the following Table 5, respectively. […] Columns pointing towards the right show a slighter than average activity.

[7] = system: KB-3-1 (human oral epidermoid carcinoma); experiment: Inhibition of tumor cell growth, SRB-assay, KB-3-1; format: cell-based
Method: as §2

[8] = Table 4, 72 hours, read-out: In vitro-activity against human tumor cell lines, HT-29
[9] = Table 4, 72 hours, read-out: In vitro-activity against human tumor cell lines, KB-HU
[10] = Table 4, 72 hours, read-out: In vitro-activity against human tumor cell lines, HeLa
[11] = Table 4, 72 hours, read-out: In vitro-activity against human tumor cell lines, Burkitts
[12] = Table 4, 72 hours, read-out: In vitro-activity against human tumor cell lines, KB-C1
[13] = Table 4, 72 hours, read-out: In vitro-activity against human tumor cell lines, KB-3-1
[14] = Table 1, 72 hours, read-out: IC50 HT-29 (converted)
[15] = Table 1, 72 hours, read-out: IC50 KB-HU
[16] = Table 1, 72 hours, read-out: IC50 HeLa (converted)
[17] = Table 1, 72 hours, read-out: IC50 Burkitts
[18] = Table 1, 72 hours, read-out: IC50 KB-Cl
[19] = Table 1, 72 hours, read-out: IC50 KB-3-1

SMILES	IC50 [2, 9]	IC50 [5, 12]	IC50 [7, 13]	IC50 [1, 14]	IC50 [3, 16]	IC50 [5, 18]	IC50 [7, 19]	other results
CC(=NNc1nc2ccccc2n1C)c1ccc(C)cn1 [Id-9, 1-(5-Methyl-2-pyridyl)-1-ethanone-1-(1-methyl-1H-benzo[d]imidazol-2-yl)-hydrazone]								IC50 ([2]; Homo sapiens, Table 4, 72 hours, read-out: In vitro-activity against human tumor cell lines, KB-HU): 0.12 µM; IC50 ([5]; Homo sapiens, KBC-1, Table 4, 72 hours, read-out: In vitro-activity against human tumor cell lines, KB-C1): 0.11 µM; IC50 ([6]; Homo sapiens): 0.199 µM; IC90 ([6]; Homo sapiens): 3.79 µM; Mean IC70 [6]: 0.560 µM; IC50 ([7]; Homo sapiens, KB 3-1, Table 4, 72 hours, read-out: In vitro-activity against human tumor cell lines, KB-3-1): 0.04 µM
CCC(=NNc1nc2ccccc2o1)c1ccccn1 [Ia-9]								tumor type selectivity ([6]; colony forming assay, IC70 pattern, FIG. 1): selectivity for colon, breast, ovarian, and uterus tumors
CC(=NNc1nc2ccccc2o1)c1ccccn1 [Ia-6]				0.13 µM	0.023 µM	0.61 µM	0.21 µM	IC50 [2, 15]: 0.32 µM; IC50 [4, 17]: 0.009 µM
CC(=NNc1nc2ccccc2[nH]1)c1ccccn1 [Ia-4, 1-(2-Pyridyl)-1-ethanon-1(1H-benzo[d]imidazol-2-yl)-hydrazone]								IC50 ([1]; Homo sapiens, HT-29, Table 1, 72 hours, read-out: IC50 HT-29 (converted)): 0.49 µM; IC50 ([2]; Homo sapiens, Table 1, 72 hours, read-out: IC50 KB-HU): 0.9 µM; IC50 ([3]; Homo sapiens, HeLa, Table 1, 72 hours, read-out: IC50 HeLa (converted)): 0.07 µM; IC50 ([4]; Homo sapiens, CA46, Table 1, 72 hours, read-out: IC50 Burkitts): 0.044 µM; IC50 ([5]; Homo sapiens, KBC-1, Table 1, 72 hours, read-out: IC50 KB-Cl): 1.97 µM; IC50 ([7]; Homo sapiens, KB 3-1, Table 1, 72 hours, read-out: IC50 KB-3-1): 0.51 µM
C(=NNc1nc2ccccc2[nH]1)c1ccccn1 [Ia-1]				3.69 µM	1.02 µM	2.94 µM	1.36 µM	IC50 [4, 17]: 0.66 µM
CC(=NNc1nc2ccccc2n1C)c1ccccn1 [Ia-5]				0.05 µM	0.0054 µM	0.048 µM	0.044 µM	IC50 [2, 15]: 0.052 µM; IC50 [4, 17]: 0.0043 µM
c1ccc(C(=NNc2nc3ccccc3[nH]2)C2CC2)nc1 [Ia-23]				0.51 µM	0.07 µM	0.32 µM		
CCC(=NNc1nc2ccccc2[nH]1)c1ccccn1 [Ia-7]				0.24 µM	0.053 µM	0.74 µM	4.01 µM	

Second part, led by results:

IC50 [2, 9]	IC50 [5, 12]	IC50 [7, 13]	IC50 [1, 14]	IC50 [3, 16]	IC50 [5, 18]	IC50 [7, 19]	SMILES	other results
0.19 µM	0.18 µM	0.25 µM					CC(=NNc1nc2ccccc2n1C)c1ccc(-c2ccccc2)cn1 [Id-16]	IC50 [1, 8]: 0.25 µM; IC50 [3, 10]: 0.18 µM; IC50 [4, 11]: 0.03 µM; IC50 [6]: 0.965 µM; IC90 [6]: 7.45 µM; Mean IC70 [6]: 2.084 µM
0.46 µM	0.16 µM	0.26 µM					CC(=NNc1nc2ccccc2n1C)c1ncccc1C [Id-7]	
0.7 µM	1.42 µM	0.55 µM					CC(=NNc1nc2ccccc2n1C)c1ncccc1-c1ccccc1 [Id-14]	IC50 [1, 8]: 0.07 µM; IC50 [3, 10]: 0.07 µM; IC50 [4, 11]: 0.01 µM
4.9 µM	29.5 µM	4.02 µM					CC(=NNc1nc2ccccc2n1C)c1cccc(N(C)C)n1 [Id-13]	IC50 [1, 8]: 17.6 µM; IC50 [3, 10]: 6.6 µM; IC50 [4, 11]: 2.01 µM
